Measurements from patent US20130012432A1, “Peptides for Treatment of Obesity” (Novo Nordisk A/S, priority 2010, published 2013).
In brackets after ≈: the same amount, converted by molar mass. Positions of bridges follow the written chain, without caps; N, C: chain ends. Non-standard residues stand in square brackets, D forms with d. Residues, ends and D or L forms follow the SMILES beside them. Groups on a side chain read outwards from the residue. ξ: configuration not given here. *: point of attachment. Palmitoyl(16-(5-tetrazolyl)) = O=C(CCCCCCCCCCCCCCCc1nnn[nH]1)*; Lys(CH2CO2H)2 = N[C@@H](CCCCN(CC(=O)O)CC(=O)O)C(=O)O; C17 diacid = O=C(O)CCCCCCCCCCCCCCCC(=O)*; Hyp = O=C(O)[C@@H]1C[C@@H](O)CN1; ξH = NC(Cc1c[nH]cn1)C(=O)O; Orn = NCCC[C@H](N)C(=O)O; Dab = NCC[C@H](N)C(=O)O; Dap = NC[C@H](N)C(=O)O; AEEA = NCCOCCOCC(=O)O; ξK = NCCCCC(N)C(=O)O

Tests used:
physchem = assay: physchem
Protocol: From a stock solution in vehicle, either H2O or 10 mM phosphate, containing 1 mg (as weighed) compound per ml, 8-11 aliquots are withdrawn and pH-adjusted individually with HCl/NaOH, to cover the whole pH range.

MC1 receptor = MC1 receptor (Homo sapiens, UniProt Q01726); assay: biochemical
Sequence of MC1 receptor (Q01726 whole entry): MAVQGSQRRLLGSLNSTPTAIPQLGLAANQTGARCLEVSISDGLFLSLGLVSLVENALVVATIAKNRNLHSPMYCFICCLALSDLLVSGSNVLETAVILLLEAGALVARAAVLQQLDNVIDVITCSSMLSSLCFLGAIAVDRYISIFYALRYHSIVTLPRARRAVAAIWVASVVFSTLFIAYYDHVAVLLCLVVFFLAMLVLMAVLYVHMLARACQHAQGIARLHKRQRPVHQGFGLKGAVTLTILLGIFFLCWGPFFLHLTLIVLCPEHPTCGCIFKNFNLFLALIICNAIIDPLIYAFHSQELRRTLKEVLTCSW
Protocol: Assay (IV)—Melanocortin Receptor 1 (MC1) Binding Assay
The MC1 receptor binding assay was performed on BHK cell membranes stably expressing the MC1 receptor. The assay was performed in a total volume of 250 μl: 25 μl of ^125NDP-α-MSH (22 pM in final concentration), 25 μl of test compound/control and 200 μl of cell membrane (25 μg/ml). Test compounds were dissolved in DMSO. Radioactively labeled ligand, membranes and test compounds were diluted in buffer: 25 mM HEPES, pH 7.4, 0.1 mM CaCl2, 1 mM MgSO4, 1 mM EDTA, 0.1% HSA and 0.005% Tween™ 20. Alternatively, HSA may be substituted with ovalbumin. The samples were incubated at 30° C. for 90 min. in Costar round-bottom microtiter plates. Incubation was terminated by filtration on a Packard harvester filtermate. Rapid filtration through Packard Unifilter-96 GF/B filters pre-treated with polyetylenimine (PerkinElmer 6005277). The filters were washed with ice-cold 0.9% NaCl 8-10 times. The plates were air-dried at app. 55° C. for 30 min, and 50 μl Microscint 0 (Packard, cat. No. 6013616) was added to each well. The plates were counted in a Topcounter (1 min/well).
The data were analysed by non-linear regression analysis of binding curves, using the Windows™ program GraphPad™ Prism (GraphPad Software, USA).

| Compound | solubility (physchem; pH 6.6, Solubility Conc.) [µM] | solubility (physchem; pH 7.2, Solubility Conc.) [µM] | solubility (physchem; pH 7.3, Solubility Conc.) [µM] | solubility (physchem; pH 7.4, Solubility Conc.) [µM] | solubility (physchem; pH 7.5, Solubility Conc.) [µM] | solubility (physchem; pH 7.6, Solubility Conc.) [µM] | solubility (physchem; pH 7.8, Solubility Conc.) [µM] | solubility (physchem; pH 8.1, Solubility Conc.) [µM] | Ki (MC1 receptor) [µM] | solubility (physchem; pH 6.7, Solubility Conc.) [µM] | solubility (physchem; pH 7, Solubility Conc.) [µM] | solubility (physchem; pH 7.9, Solubility Conc.) [µM] | solubility (physchem; pH 6.4, Solubility Conc.) [µM] | also measured |
| --- | --- | --- | --- | --- | --- | --- | --- | --- | --- | --- | --- | --- | --- | --- |
| CC(=O)N[C@H]1CCC(=O)NCCCC[C@@H](C(=O)N2CCC[C@H]2C(=O)N2CCC[C@H]2C(=O)N[C@@H](CCCNC(=N)N)C(=O)N[C@@H](CC(=O)O)C(=O)N[C@@H](CCCCN(CC(=O)O)CC(=O)O)C(=O)N[C@@H](CCCCNC(=O)COCCOCCNC(=O)CCCCCCCCCCCCCCCc2nnn[nH]2)C(N)=O)NC(=O)[C@H](Cc2c[nH]c3ccccc23)NC(=O)[C@H](CCCNC(=N)N)NC(=O)[C@@H](Cc2ccccc2)NC(=O)[C@H](Cc2c[nH]cn2)NC1=O [Example 27, Ac-c[Glu-His-D-Phe-Arg-Trp-Lys]-Pro-Pro-Arg-Asp-Lys(biscarboxymethyl)-Lys[(2-{2-[16-(tetrazol-5-yl)hexadecanoylamino]ethoxy}ethoxy)acetyl]-NH2] (Ac-EH[dF]RWKPPRD[Lys(CH2CO2H)2]K([AEEA-Palmitoyl(16-(5-tetrazolyl))])-NH2; lactam 1-6) | 42 (≈ 93 µg/mL) | 263 (≈ 582 µg/mL) | 394 (≈ 873 µg/mL) | 459 (≈ 1020 µg/mL) | 474 (≈ 1050 µg/mL) | 521 (≈ 1150 µg/mL) | 481 (≈ 1070 µg/mL) | 435 (≈ 963 µg/mL) | > 10 |  |  |  |  | solubility (physchem; pH 6.9, Solubility Conc.): 65 µM (≈ 144 µg/mL) |
| CC(=O)N[C@H]1CCC(=O)NCC[C@@H](C(=O)N2C[C@H](O)C[C@H]2C(=O)N2C[C@H](O)C[C@H]2C(=O)N[C@@H](CCCNC(=N)N)C(=O)N[C@@H](CC(=O)O)C(=O)N[C@@H](CCCCN(CC(=O)O)CC(=O)O)C(=O)N[C@@H](CCCCNC(=O)COCCOCCNC(=O)CCCCCCCCCCCCCCCc2nnn[nH]2)C(N)=O)NC(=O)[C@H](Cc2c[nH]c3ccccc23)NC(=O)[C@H](CCCNC(=N)N)NC(=O)[C@@H](Cc2ccccc2)NC(=O)[C@H](Cc2c[nH]cn2)NC1=O [Example 32, Ac-c[Glu-His-D-Phe-Arg-Trp-Dab]-Hyp-Hyp-Arg-Asp-Lys(biscarboxymethyl)-Lys[(2-{2-[16-(tetrazol-5-yl)hexadecanoylamino]ethoxy}ethoxy)acetyl]-NH2] (Ac-EH[dF]RW[Dab][Hyp][Hyp]RD[Lys(CH2CO2H)2]K([AEEA-Palmitoyl(16-(5-tetrazolyl))])-NH2; lactam 1-6) |  | 89 (≈ 197 µg/mL) |  |  | 258 (≈ 572 µg/mL) | 324 (≈ 719 µg/mL) | 640 (≈ 1420 µg/mL) | 230 (≈ 510 µg/mL) | > 10 | 40 (≈ 88.7 µg/mL) | 60 (≈ 133 µg/mL) | 674 (≈ 1500 µg/mL) |  |  |
| CC(=O)N[C@H]1CCNC(=O)C[C@@H](C(=O)N2CCC[C@H]2C(=O)N2CCC[C@H]2C(=O)N[C@@H](Cc2c[nH]cn2)C(=O)N[C@@H](CCC(=O)O)C(=O)N[C@@H](CCCCN(CC(=O)O)CC(=O)O)C(=O)N[C@@H](CCCCNC(=O)COCCOCCNC(=O)CCCCCCCCCCCCCCCc2nnn[nH]2)C(N)=O)NC(=O)[C@H](Cc2c[nH]c3ccccc23)NC(=O)[C@H](CCCNC(=N)N)NC(=O)[C@@H](Cc2ccccc2)NC(=O)[C@H](Cc2c[nH]cn2)NC1=O [Example 33, Ac-c[Dab-His-D-Phe-Arg-Trp-Asp]-Pro-Pro-His-Glu-Lys(biscarboxymethyl)-Lys[(2-{2-[16-(tetrazol-5-yl)hexadecanoylamino]ethoxy}ethoxy)acetyl]-NH2] (Ac-[Dab]H[dF]RWDPPHE[Lys(CH2CO2H)2]K([AEEA-Palmitoyl(16-(5-tetrazolyl))])-NH2; lactam 1-6) | 468 (≈ 1010 µg/mL) |  | 488 (≈ 1060 µg/mL) |  | 503 (≈ 1090 µg/mL) |  | 489 (≈ 1060 µg/mL) | 511 (≈ 1110 µg/mL) | > 10 | 485 (≈ 1050 µg/mL) |  |  | 122 (≈ 264 µg/mL) | solubility (physchem; pH 6.9, Solubility Conc.): 487 µM (≈ 1060 µg/mL); solubility (physchem; pH 8.6, Solubility Conc.): 473 µM (≈ 1030 µg/mL) |
| CC(=O)N[C@H]1CCC(=O)NCCC[C@@H](C(=O)N2CCC[C@H]2C(=O)N2CCC[C@H]2C(=O)N[C@@H](CCCNC(=N)N)C(=O)N[C@@H](CC(=O)O)C(=O)N[C@@H](CCCCN(CC(=O)O)CC(=O)O)C(=O)N[C@@H](CCCCNC(=O)COCCOCCNC(=O)CCCCCCCCCCCCCCCc2nnn[nH]2)C(N)=O)NC(=O)[C@H](Cc2c[nH]c3ccccc23)NC(=O)[C@H](CCCNC(=N)N)NC(=O)[C@@H](Cc2ccccc2)NC(=O)[C@H](CCC(N)=O)NC1=O [Example 37, Ac-c[Glu-Gln-D-Phe-Arg-Trp-Orn]-Pro-Pro-Arg-Asp-Lys(biscarboxymethyl)-Lys[(2-{2-[16-(tetrazol-5-yl)hexadecanoylamino]ethoxy}ethoxy)acetyl]-NH2] (Ac-EQ[dF]RW[Orn]PPRD[Lys(CH2CO2H)2]K([AEEA-Palmitoyl(16-(5-tetrazolyl))])-NH2; lactam 1-6) | 450 (≈ 986 µg/mL) | 482 (≈ 1060 µg/mL) | 486 (≈ 1070 µg/mL) |  | 458 (≈ 1000 µg/mL) | 467 (≈ 1020 µg/mL) |  |  | > 10 |  | 510 (≈ 1120 µg/mL) | 507 (≈ 1110 µg/mL) | 464 (≈ 1020 µg/mL) | solubility (physchem; pH 5.7, Solubility Conc.): 95 µM (≈ 208 µg/mL); solubility (physchem; pH 6.8, Solubility Conc.): 453 µM (≈ 993 µg/mL) |
| CC(=O)N[C@H]1CCCNC(=O)C[C@@H](C(=O)N2CCC[C@H]2C(=O)N[C@@H](CO)C(=O)NC(CCCCN)C(=O)N[C@@H](CCC(=O)O)C(=O)N[C@@H](CCC(=O)O)C(=O)N[C@@H](CO)C(=O)N[C@@H](CO)C(=O)N[C@@H](CCCCNC(=O)COCCOCCNC(=O)CCCCCCCCCCCCCCCC(=O)O)C(N)=O)NC(=O)CNC(=O)[C@H](Cc2c[nH]c3ccccc23)NC(=O)[C@H](CCCNC(=N)N)NC(=O)[C@@H](Cc2ccccc2)NC(=O)C(Cc2c[nH]cn2)NC(=O)[C@H](CCC(=O)O)NC1=O (stereo partly drawn) [Example 40] (Ac-[Orn]E[ξH][dF]RWGDPS[ξK]EESSK([AEEA-C17 diacid])-NH2; lactam 1-8) |  |  |  | 499 (≈ 1190 µg/mL) |  | 489 (≈ 1170 µg/mL) |  |  | > 10 | 493 (≈ 1180 µg/mL) | 505 (≈ 1200 µg/mL) |  |  | solubility (physchem; pH 5.9, Solubility Conc.): 266 µM (≈ 634 µg/mL); solubility (physchem; pH 6.3, Solubility Conc.): 501 µM (≈ 1190 µg/mL); solubility (physchem; pH 6.5, Solubility Conc.): 512 µM (≈ 1220 µg/mL); solubility (physchem; pH 8, Solubility Conc.): 488 µM (≈ 1160 µg/mL); solubility (physchem; pH 8.2, Solubility Conc.): 503 µM (≈ 1200 µg/mL) |
| CC(=O)N[C@H]1CC(=O)NC[C@@H](C(=O)N2CCC[C@H]2C(=O)N2CCC[C@H]2C(=O)N[C@@H](CCCNC(=N)N)C(=O)N[C@@H](CC(=O)O)C(=O)N[C@@H](CCCCN(CC(=O)O)CC(=O)O)C(=O)N[C@@H](CCCCNC(=O)COCCOCCNC(=O)CCCCCCCCCCCCCCCc2nnn[nH]2)C(N)=O)NC(=O)[C@H](Cc2c[nH]c3ccccc23)NC(=O)[C@H](CCCNC(=N)N)NC(=O)[C@@H](Cc2ccccc2)NC(=O)[C@H](Cc2c[nH]cn2)NC1=O [Example 41, Ac-c[Asp-His-D-Phe-Arg-Trp-Dap]-Pro-Pro-Arg-Asp-Lys(biscarboxymethyl)-Lys[(2-{2-[16-(tetrazol-5-yl)hexadecanoylamino]ethoxy}ethoxy)acetyl]-NH2] (Ac-DH[dF]RW[Dap]PPRD[Lys(CH2CO2H)2]K([AEEA-Palmitoyl(16-(5-tetrazolyl))])-NH2; lactam 1-6) |  |  | 87 (≈ 188 µg/mL) | 160 (≈ 345 µg/mL) | 387 (≈ 835 µg/mL) | 497 (≈ 1070 µg/mL) | 451 (≈ 973 µg/mL) |  | > 10 |  | 39 (≈ 84.2 µg/mL) |  |  | solubility (physchem; pH 7.7, Solubility Conc.): 478 µM (≈ 1030 µg/mL); solubility (physchem; pH 8, Solubility Conc.): 493 µM (≈ 1060 µg/mL) |
| CC(=O)N[C@H]1CCCCNC(=O)C[C@@H](C(=O)N2CCC[C@H]2C(=O)N2CCC[C@H]2C(=O)N[C@@H](Cc2c[nH]cn2)C(=O)N[C@@H](CO)C(=O)N[C@@H](CCCCN(CC(=O)O)CC(=O)O)C(=O)N[C@@H](CO)C(=O)N[C@@H](CO)C(=O)N[C@@H](CCC(=O)O)C(=O)N[C@@H](CCCCNC(=O)COCCOCCNC(=O)CCCCCCCCCCCCCCCC(=O)O)C(N)=O)NC(=O)[C@H](Cc2c[nH]c3ccccc23)NC(=O)[C@H](CCCNC(=N)N)NC(=O)[C@@H](Cc2ccccc2)NC(=O)[C@H](Cc2c[nH]cn2)NC1=O [Example 45, Ac-c[Lys-His-D-Phe-Arg-Trp-Asp]-Pro-Pro-His-Ser-Lys(biscarboxymethyl)-Ser-Ser-Glu-Lys({2-[2-(16-carboxyhexadecanoylamino)ethoxy]ethoxy}acetyl)-NH2] (Ac-KH[dF]RWDPPHS[Lys(CH2CO2H)2]SSEK([AEEA-C17 diacid])-NH2; lactam 1-6) |  |  | 391 (≈ 951 µg/mL) |  | 380 (≈ 924 µg/mL) |  |  | 400 (≈ 973 µg/mL) | > 10 | 334 (≈ 813 µg/mL) | 370 (≈ 900 µg/mL) | 391 (≈ 951 µg/mL) | 199 (≈ 484 µg/mL) | solubility (physchem; pH 6.8, Solubility Conc.): 350 µM (≈ 851 µg/mL); solubility (physchem; pH 7.7, Solubility Conc.): 379 µM (≈ 922 µg/mL) |
